Data reported in patent US10954219B2, “1,3-benzodioxole derivative” (DAIICHI SANKYO COMPANY, LIMITED, priority 2014, dated 2021).
Where a name gives a salt, the structure may show the parent alone.

Experiments:
PRC2-EZH2 (WT EZH2) = target: T1, PRC2-EZH2 (WT EZH2) (Homo sapiens, UniProt Q15910); test: EZH2 methyltransferase inhibitory activity evaluation; format: biochemical; details: PRC2-EZH2, biotin-H3 peptide, 3H-SAM, 2 hours
T1 construct: made in house

PRC2-EZH1 (WT EZH1) = PRC2-EZH1 (WT EZH1) (Homo sapiens, UniProt Q92800); test: EZH1 methyltransferase inhibitory activity evaluation
[1] = tested on: Intracellular H3K27me3 in HCT116 cells; test: Intracellular H3K27me3 inhibitory activity evaluation; format: cell-based; details: Homo sapiens, HCT-116, 72 h, 3 days, AlphaLISA, read-out: Test Example 3 H3K27me3 inhibition (HCT116) IC50

T1 sequence (Q15910 whole entry): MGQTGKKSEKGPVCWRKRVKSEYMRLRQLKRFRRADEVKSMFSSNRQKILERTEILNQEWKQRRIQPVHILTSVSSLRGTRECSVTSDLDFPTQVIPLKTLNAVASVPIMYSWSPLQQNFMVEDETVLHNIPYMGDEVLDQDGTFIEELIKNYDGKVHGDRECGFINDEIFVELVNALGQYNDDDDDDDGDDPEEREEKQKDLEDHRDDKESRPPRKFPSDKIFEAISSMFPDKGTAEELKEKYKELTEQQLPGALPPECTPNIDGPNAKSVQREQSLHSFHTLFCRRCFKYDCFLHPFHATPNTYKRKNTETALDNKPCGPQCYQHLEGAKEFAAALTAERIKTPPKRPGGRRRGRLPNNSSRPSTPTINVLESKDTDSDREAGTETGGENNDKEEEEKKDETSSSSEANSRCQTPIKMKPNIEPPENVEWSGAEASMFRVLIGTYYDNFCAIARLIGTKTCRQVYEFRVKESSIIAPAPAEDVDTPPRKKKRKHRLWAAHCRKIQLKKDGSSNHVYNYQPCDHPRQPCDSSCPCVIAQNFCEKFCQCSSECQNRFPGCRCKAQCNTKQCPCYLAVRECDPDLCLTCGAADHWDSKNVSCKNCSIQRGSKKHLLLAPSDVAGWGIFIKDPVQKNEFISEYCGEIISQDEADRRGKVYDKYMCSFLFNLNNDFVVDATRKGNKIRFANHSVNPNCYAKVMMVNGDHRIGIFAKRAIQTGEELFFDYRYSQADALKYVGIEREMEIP
T1 sequence (O75530 whole entry partner): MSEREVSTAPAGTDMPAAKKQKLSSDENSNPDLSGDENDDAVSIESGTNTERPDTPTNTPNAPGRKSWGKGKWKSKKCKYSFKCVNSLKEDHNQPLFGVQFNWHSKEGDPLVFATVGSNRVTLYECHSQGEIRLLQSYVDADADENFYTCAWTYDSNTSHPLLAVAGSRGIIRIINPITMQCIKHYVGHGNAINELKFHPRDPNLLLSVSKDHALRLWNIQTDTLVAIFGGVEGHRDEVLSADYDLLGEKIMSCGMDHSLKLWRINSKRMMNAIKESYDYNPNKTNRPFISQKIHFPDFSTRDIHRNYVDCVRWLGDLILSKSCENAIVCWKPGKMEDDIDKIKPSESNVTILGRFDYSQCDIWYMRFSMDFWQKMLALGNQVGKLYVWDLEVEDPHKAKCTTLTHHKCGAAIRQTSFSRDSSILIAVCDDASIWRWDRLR
T1 sequence (Q15022 whole entry partner): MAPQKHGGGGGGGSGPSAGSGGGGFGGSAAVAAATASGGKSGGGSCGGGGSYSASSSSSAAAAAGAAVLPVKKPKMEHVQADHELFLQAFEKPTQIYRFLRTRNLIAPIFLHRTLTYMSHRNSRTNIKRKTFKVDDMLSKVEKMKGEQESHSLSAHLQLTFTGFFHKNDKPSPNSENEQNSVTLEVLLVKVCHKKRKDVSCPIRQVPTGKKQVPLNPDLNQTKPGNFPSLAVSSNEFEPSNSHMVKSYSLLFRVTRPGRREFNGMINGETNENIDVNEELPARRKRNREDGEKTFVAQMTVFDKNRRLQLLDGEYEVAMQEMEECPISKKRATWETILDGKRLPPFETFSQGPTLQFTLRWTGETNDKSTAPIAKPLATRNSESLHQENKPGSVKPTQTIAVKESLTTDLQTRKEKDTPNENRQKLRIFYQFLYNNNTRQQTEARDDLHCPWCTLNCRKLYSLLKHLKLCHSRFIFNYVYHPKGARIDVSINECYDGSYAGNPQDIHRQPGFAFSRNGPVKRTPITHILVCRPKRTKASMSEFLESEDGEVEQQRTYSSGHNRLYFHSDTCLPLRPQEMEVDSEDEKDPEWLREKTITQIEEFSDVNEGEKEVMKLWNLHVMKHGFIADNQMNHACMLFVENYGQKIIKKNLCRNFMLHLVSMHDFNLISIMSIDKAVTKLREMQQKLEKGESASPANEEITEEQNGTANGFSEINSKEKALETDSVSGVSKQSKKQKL
PRC2-EZH1 (WT EZH1), sequence (Q92800 whole entry): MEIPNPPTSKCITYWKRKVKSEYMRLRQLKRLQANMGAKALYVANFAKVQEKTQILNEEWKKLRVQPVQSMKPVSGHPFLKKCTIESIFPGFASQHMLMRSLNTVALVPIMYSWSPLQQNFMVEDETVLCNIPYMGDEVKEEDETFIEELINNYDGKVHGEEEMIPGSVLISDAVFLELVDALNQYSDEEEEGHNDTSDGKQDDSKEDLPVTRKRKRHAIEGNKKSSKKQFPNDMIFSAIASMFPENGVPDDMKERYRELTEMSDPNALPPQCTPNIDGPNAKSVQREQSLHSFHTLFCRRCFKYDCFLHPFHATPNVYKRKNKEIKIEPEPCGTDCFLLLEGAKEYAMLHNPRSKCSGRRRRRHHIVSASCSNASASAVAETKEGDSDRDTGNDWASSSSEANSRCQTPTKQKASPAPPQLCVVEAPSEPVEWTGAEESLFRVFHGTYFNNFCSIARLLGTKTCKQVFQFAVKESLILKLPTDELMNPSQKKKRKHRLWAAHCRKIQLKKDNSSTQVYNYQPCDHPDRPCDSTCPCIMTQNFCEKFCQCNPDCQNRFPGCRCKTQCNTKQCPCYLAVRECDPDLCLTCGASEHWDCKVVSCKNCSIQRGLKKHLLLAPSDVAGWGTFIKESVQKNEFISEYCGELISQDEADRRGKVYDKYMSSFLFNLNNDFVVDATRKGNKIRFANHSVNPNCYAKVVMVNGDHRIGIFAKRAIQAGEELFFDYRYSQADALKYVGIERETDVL
PRC2-EZH1 (WT EZH1), sequence (O75530 whole entry partner): as the sequence (O75530 whole entry partner) above
PRC2-EZH1 (WT EZH1), sequence (Q15022 whole entry partner): as the sequence (Q15022 whole entry partner) above
PRC2-EZH1 (WT EZH1), sequence (Q09028 whole entry partner): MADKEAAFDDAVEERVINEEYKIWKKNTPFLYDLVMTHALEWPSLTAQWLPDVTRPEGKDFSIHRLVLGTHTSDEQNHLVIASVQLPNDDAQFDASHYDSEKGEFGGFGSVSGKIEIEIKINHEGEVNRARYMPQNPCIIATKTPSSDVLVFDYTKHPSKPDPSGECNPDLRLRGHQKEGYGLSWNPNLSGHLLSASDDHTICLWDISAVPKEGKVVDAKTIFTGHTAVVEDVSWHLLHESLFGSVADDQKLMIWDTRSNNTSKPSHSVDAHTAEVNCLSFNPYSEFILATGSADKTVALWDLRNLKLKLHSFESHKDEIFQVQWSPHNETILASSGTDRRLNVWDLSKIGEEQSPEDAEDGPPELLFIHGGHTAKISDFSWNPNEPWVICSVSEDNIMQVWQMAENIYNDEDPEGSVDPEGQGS
PRC2-EZH1 (WT EZH1), sequence (Q6ZN18 whole entry partner): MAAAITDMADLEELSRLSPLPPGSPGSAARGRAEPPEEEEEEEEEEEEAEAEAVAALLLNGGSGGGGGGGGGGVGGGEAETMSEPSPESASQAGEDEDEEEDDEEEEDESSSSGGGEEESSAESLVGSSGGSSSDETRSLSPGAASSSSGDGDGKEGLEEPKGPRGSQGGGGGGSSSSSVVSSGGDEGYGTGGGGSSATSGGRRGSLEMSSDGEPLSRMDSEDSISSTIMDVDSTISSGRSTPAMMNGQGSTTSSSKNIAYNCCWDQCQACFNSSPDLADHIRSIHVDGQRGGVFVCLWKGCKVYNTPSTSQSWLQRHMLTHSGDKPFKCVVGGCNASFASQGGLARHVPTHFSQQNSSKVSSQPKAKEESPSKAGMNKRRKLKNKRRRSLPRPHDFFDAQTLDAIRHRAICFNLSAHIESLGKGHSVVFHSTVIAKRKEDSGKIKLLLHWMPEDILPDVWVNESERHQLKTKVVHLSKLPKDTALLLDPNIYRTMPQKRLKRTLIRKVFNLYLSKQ

Structure (SMILES)	IC50 (PRC2-EZH2 (WT EZH2))	IC50 (PRC2-EZH1 (WT EZH1))	IC50 [1]
Cc1cc(C)c(CNC(=O)c2cc(Br)c3c(c2C)OC(C)(C2CC4(CC(N(C)C)C4)C2)O3)c(=O)[nH]1 (stereo not drawn) [Example 4, 7-Bromo-2-[2-(dimethylamino)spiro[3.3]heptan-6-yl]-N-[(4,6-dimethyl-2-oxo-1,2-dihydropyridin-3-yl)methyl]-2,4-dimethyl-1,3-benzodioxole-5-carboxamide]	25 nM	130 nM	8.3 nM
COCCN1CCC([C@@]2(C)Oc3c(Br)cc(C(=O)NCc4c(C)cc(C)[nH]c4=O)c(C)c3O2)CC1 [Example 10, (2R)-7-Bromo-N-[(4,6-dimethyl-2-oxo-1H-pyridin-3-yl)methyl]-2-[l-(2-methoxyethyl)-4-piperidyl]-2,4-dimethyl-1,3-benzodioxole-5-carboxamide]	11 nM	130 nM	18 nM
Cc1cc(C)c(CNC(=O)c2cc(Cl)c3c(c2C)OC(C)(CC2CCN(C)CC2)O3)c(=O)[nH]1 (stereo not drawn) [Example 40, 7-Chloro-N-[(4,6-dimethyl-2-oxo-1,2-dihydropyridin-3-yl)methyl]-2,4-dimethyl-2-[(1-methyl-4-piperidyl)methyl]-1,3-benzodioxole-5-carboxamide]	11 nM	210 nM	32 nM
Cc1cc(C)c(CNC(=O)c2cc(Br)c3c(c2C)OC(C)(C2CCOC2)O3)c(=O)[nH]1 (stereo not drawn) [Example 1, 7-Bromo-N-[(4,6-dimethyl-2-oxo-1,2-dihydropyridin-3-yl)methyl]-2,4-dimethyl-2-(tetrahydrofuran-3-yl)-1,3-benzodioxole-5-carboxamide]	24 nM	140 nM	29 nM
CN[C@H]1CC[C@H](C2(C)Oc3c(Cl)cc(C(=O)NCc4c(C)cc(C)[nH]c4=O)c(C)c3O2)CC1 (relative stereo) [Example 32, 7-Chloro-N-[(4,6-dimethyl-2-oxo-1,2-dihydropyridin-3-yl)methyl]-2,4-dimethyl-2-[trans-4-(methylamino)cyclohexyl]-1,3-benzodioxole-5-carboxamide]	17 nM	30 nM	4.8 nM
COc1cc(C)[nH]c(=O)c1CNC(=O)c1cc(Cl)c2c(c1C)OC(C)([C@H]1CC[C@H](N(C)C)CC1)O2 (relative stereo) [Example 36, 7-Chloro-2-[trans-4-(dimethylamino)cyclohexyl]-N-[(4-methoxy-6-methyl-2-oxo-1,2-dihydropyridin-3-yl)methyl]-2,4-dimethyl-1,3-benzodioxole-5-carboxamide]	13 nM	13 nM	1.6 nM
Cc1cc(C)c(CNC(=O)c2cc(Cl)c3c(c2C)OC(C)([C@@H]2CC[C@@H](N(C)C)CO2)O3)c(=O)[nH]1 (stereo partly drawn) [Example 38, 7-Chloro-2-[(2S,5R)-5-(dimethylamino)tetrahydropyran-2-yl]-N-[(4,6-dimethyl-2-oxo-1,2-dihydropyridin-3-yl)methyl]-2,4-dimethyl-1,3-benzodioxole-5-carboxamide]	12 nM	57 nM	2.8 nM
Cc1cc(C)c(CNC(=O)c2cc(Br)c3c(c2C)OC(C)([C@H]2CC[C@@H](N(C)C)CC2)O3)c(=O)[nH]1 (relative stereo) [Example 41, 7-Bromo-2-[cis-4-(dimethylamino)cyclohexyl]-N-[(4,6-dimethyl-2-oxo-1,2-dihydropyridin-3-yl)methyl]-2,4-dimethyl-1,3-benzodioxole-5-carboxamide]			11 nM
Cc1cc(C)c(CNC(=O)c2cc(Br)c3c(c2C)OC(C)(C2CCOCC2)O3)c(=O)[nH]1 (stereo not drawn) [Example 2, 7-Bromo-N-[(4,6-dimethyl-2-oxo-1,2-dihydropyridin-3-yl)methyl]-2,4-dimethyl-2-(tetrahydropyran-4-yl)-1,3-benzodioxole-5-carboxamide]	22 nM		9 nM
Cc1cc(C)c(CNC(=O)c2cc(Br)c3c(c2C)OC(C)([C@@H]2CC[C@@H](N(C)C)CO2)O3)c(=O)[nH]1 (stereo partly drawn) [Example 22, 7-Bromo-2-[(2S,5R)-5-(dimethylamino)tetrahydropyran-2-yl]-N-[(4,6-dimethyl-2-oxo-1,2-dihydropyridin-3-yl)methyl]-2,4-dimethyl-1,3-benzodioxole-5-carboxamide]	14 nM		1.6 nM
CCCN1CCC([C@@]2(C)Oc3c(Br)cc(C(=O)NCc4c(C)cc(C)[nH]c4=O)c(C)c3O2)CC1 [Example 9, (2R)-7-Bromo-N-[(4,6-dimethyl-2-oxo-1,2-dihydropyridin-3-yl)methyl]-2,4-dimethyl-2-(1-propyl-4-piperidyl)-1,3-benzodioxole-5-carboxamide]	11 nM		13 nM
CCS(=O)(=O)N1CCC([C@@]2(C)Oc3c(Br)cc(C(=O)NCc4c(C)cc(C)[nH]c4=O)c(C)c3O2)CC1 [Example 11, (2R)-7-Bromo-N-[(4,6-dimethyl-2-oxo-1,2-dihydropyridin-3-yl)methyl]-2-(1-ethylsulfonyl-4-piperidyl)-2,4-dimethyl-1,3-benzodioxole-5-carboxamide]	9.1 nM		3.7 nM

Next, values leading:

IC50 (PRC2-EZH2 (WT EZH2))	IC50 (PRC2-EZH1 (WT EZH1))	IC50 [1]	Structure (SMILES)
18 nM	23 nM	13 nM	Cc1cc(C)c(CNC(=O)c2cc(-c3cnn(C)c3)c3c(c2C)OC(C)([C@H]2CC[C@H](N(C)C)CC2)O3)c(=O)[nH]1 (relative stereo) [Example 65, 2-[trans-4-(Dimethylamino)cyclohexyl]-N-[(4,6-dimethyl-2-oxo-1,2-dihydropyridin-3-yl)methyl]-2,4-dimethyl-7-(1-methylpyrazol-4-yl)-1,3-benzodioxole-5-carboxamide hydrochloride]
20 nM	53 nM	7.1 nM	COc1cc(C(=O)NCc2c(C)cc(C)[nH]c2=O)c(C)c2c1OC(C)([C@H]1CC[C@H](N(C)C)CC1)O2 (relative stereo) [Example 50, 2-[trans-4-(Dimethylamino)cyclohexyl]-N-[(4,6-dimethyl-2-oxo-1,2-dihydropyridin-3-yl)methyl]-7-methoxy-2,4-dimethyl-1,3-benzodioxole-5-carboxamide]
10 nM	4.4 nM	2.9 nM	Cc1cc(C)c(CNC(=O)c2cc(C3=CCCC3)c3c(c2C)OC(C)([C@H]2CC[C@H](N(C)C)CC2)O3)c(=O)[nH]1 (relative stereo) [Example 58, 7-(Cyclopenten-1-yl)-2-[trans-4-(dimethylamino)cyclohexyl]-N-[(4,6-dimethyl-2-oxo-1,2-dihydropyridin-3-yl)methyl]-2,4-dimethyl-1,3-benzodioxole-5-carboxamide]
36 nM	110 nM	12 nM	CCN1CCN(c2ccc(-c3cc(C(=O)NCc4c(C)cc(C)[nH]c4=O)c(C)c4c3OC(C)(C3CCOC3)O4)cn2)CC1 (stereo not drawn) [Example 57, N-[(4,6-Dimethyl-2-oxo-1,2-dihydropyridin-3-yl)methyl]-7-[6-(4-ethylpiperazin-1-yl)-3-pyridyl]-2,4-dimethyl-2-(tetrahydrofuran-3-yl)-1,3-benzodioxole-5-carboxamide]
17 nM	76 nM	13 nM	CC(=O)c1cc(C(=O)NCc2c(C)cc(C)[nH]c2=O)c(C)c2c1OC(C)([C@H]1CC[C@H](N(C)C)CC1)O2 (relative stereo) [Example 72, 7-Acetyl-2-[trans-4-(dimethylamino)cyclohexyl]-N-[(4,6-dimethyl-2-oxo-1,2-dihydropyridin-3-yl)methyl]-2,4-dimethyl-1,3-benzodioxole-5-carboxamide hydrochloride]
22 nM	27 nM	1.7 nM	C=Cc1cc(C(=O)NCc2c(C)cc(C)[nH]c2=O)c(C)c2c1OC(C)([C@H]1CC[C@H](N(C)C)CC1)O2 (relative stereo) [Example 66, 2-[trans-4-(Dimethylamino)cyclohexyl]-N-[(4,6-dimethyl-2-oxo-1,2-dihydropyridin-3-yl)methyl]-2,4-dimethyl-7-vinyl-1,3-benzodioxole-5-carboxamide]
7.9 nM	77 nM	14 nM	Cc1cc(C)c(CNC(=O)c2cc(Br)c3c(c2C)OC(C)(CN2CCC(N(C)C)CC2)O3)c(=O)[nH]1 (stereo not drawn) [Example 44, 7-Bromo-2-[[4-(dimethylamino)-1-piperidyl]methyl]-N-[(4,6-dimethyl-2-oxo-1,2-dihydropyridin-3-yl)methyl]-2,4-dimethyl-1,3-benzodioxole-5-carboxamide]
18 nM	92 nM	2.6 nM	Cc1cc(C)c(CNC(=O)c2cc(C)c3c(c2C)OC(C)([C@@H]2CC[C@@H](N(C)C)CO2)O3)c(=O)[nH]1 (stereo partly drawn) [Example 49, 2-[(2S,5R)-5-(Dimethylamino)tetrahydropyran-2-yl]-N-[(4,6-dimethyl-2-oxo-1,2-dihydropyridin-3-yl)methyl]-2,4,7-trimethyl-1,3-benzodioxole-5-carboxamide]
27 nM	210 nM	3.8 nM	Cc1cc(C)c(CNC(=O)c2cc(Cl)c3c(c2Cl)OC(C)([C@@H]2CC[C@@H](N(C)C)CO2)O3)c(=O)[nH]1 (stereo partly drawn) [Example 54, 4,7-Dichloro-2-[(2S,5R)-5-(dimethylamino)tetrahydropyran-2-yl]-N-[(4,6-dimethyl-2-oxo-1,2-dihydropyridin-3-yl)methyl]-2-methyl-1,3-benzodioxole-5-carboxamide]
6.7 nM	72 nM	3.4 nM	Cc1cc(C)c(CNC(=O)c2cc(F)c3c(c2C)OC(C)([C@H]2CC[C@H](N(C)C)CC2)O3)c(=O)[nH]1 (relative stereo) [Example 46, 2-[trans-4-(Dimethylamino)cyclohexyl]-N-[(4,6-dimethyl-2-oxo-1,2-dihydropyridin-3-yl)methyl]-7-fluoro-2,4-dimethyl-1,3-benzodioxole-5-carboxamide]
